# Results from patent US11498896B2 (The Broad Institute, Inc., priority 2014, dated 2022).
# What was measured:
# [1] = target: T1, human D2R/β-arrestin (Homo sapiens (Human), UniProt P14416); assay: β-arrestin agonist assay (PathHunter); format: cell-based; conditions: CHO-K1 cells expressing human D2R/β-arrestin; agonist mode
# Protocol: The detection reagent (9.6 μL, Buffer:Emerald II:Galactor-Star in a 19:5:1 ratio, i.e., 14.06 mL:3.7 mL:0.74 mL=18.5 mL) was then added to the agonist plates.
# [2] = target: T1, human D2R/β-arrestin; assay: Gi/cAMP agonist assay (Lance Ultra cAMP, forskolin); format: cell-based; conditions: CHO-K1 cells expressing human D2R/β-arrestin; agonist mode, 2.5 μM forskolin
# Protocol: Eu-cAMP tracer solution (10 μl, PerkinElmer, 360 μl of Tracer in 17.64 ml kit buffer) and ULight-anti-cAMP solution (10 μl, 120 μL antibody in 17.88 ml kit buffer) was then added to each well.
# [3] = target: T1, human D2R/β-arrestin; assay: cell-based; conditions: β-arrestin Antagonist, CHO-K1 cells expressing human D2R/β-arrestin; antagonist mode, quinpirole 130 nM
# [4] = target: T1, human D2R/β-arrestin; assay: cell-based; conditions: cAMP Antagonist, CHO-K1 cells expressing human D2R/β-arrestin; antagonist mode, 2.5 μM forskolin and 2.7 nM quinpirole
# T1 sequence (P14416 whole entry): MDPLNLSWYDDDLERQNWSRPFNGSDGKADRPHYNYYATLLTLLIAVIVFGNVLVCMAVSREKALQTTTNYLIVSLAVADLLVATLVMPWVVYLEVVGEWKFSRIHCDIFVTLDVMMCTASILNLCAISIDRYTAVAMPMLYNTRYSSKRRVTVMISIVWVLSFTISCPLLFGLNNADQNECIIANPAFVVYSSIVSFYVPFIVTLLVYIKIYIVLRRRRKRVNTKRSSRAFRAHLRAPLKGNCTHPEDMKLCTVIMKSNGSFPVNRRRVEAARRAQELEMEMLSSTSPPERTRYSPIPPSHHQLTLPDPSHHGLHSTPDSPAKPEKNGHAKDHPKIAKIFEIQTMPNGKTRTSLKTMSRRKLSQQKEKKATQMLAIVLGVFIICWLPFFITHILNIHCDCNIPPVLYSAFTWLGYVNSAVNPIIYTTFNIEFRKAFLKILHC
SMILES,EC50 [1],EC50 [2],IC50 [3],IC50 [4]
"CC(=O)c1cc(F)ccc1OCCN1CCC(C)(Oc2ccc(Cl)cc2)CC1 [Compound 187, 1-(2-(2-(4-(4-chlorophenoxy)-4-methylpiperidin-1-yl)ethoxy)-5-fluorophenyl)ethan-1-one]",> 30 µM,0.1 to 1 µM,1 to 10 µM,1 to 10 µM
"CC1(Oc2ccccc2)CCN(C(C)(C)COc2ccccc2C(F)(F)F)CC1 [Example 80, 4-methyl-1-(2-methyl-1-(2-(trifluoromethyl)phenoxy)propan-2-yl)-4-phenoxypiperidine]",> 30 µM,10 to 30 µM,1 to 10 µM,1 to 10 µM
"CC1(Oc2ccccc2)CCN(CCOc2ccccc2)C1 (centres unmarked) [Compound 39, 3-methyl-3-phenoxy-1-(2-phenoxyethyl)pyrrolidine]",> 30 µM,< 0.1 µM,0.1 to 1 µM,> 30 µM
"FC(F)(F)c1ccccc1OCCN1CCC2(CC1)CCN2c1ccccc1 [Compound 113, 1-phenyl-7-(2-(2-(trifluoromethyl)phenoxy)ethyl)-1,7-diazaspiro[3.5]nonane]",> 30 µM,> 30 µM,0.1 to 1 µM,0.1 to 1 µM
"CC1(O)CCCN(CCOc2ccccc2C(F)(F)F)C1 (centres unmarked) [Compound 134, 3-Methyl-1-(2-(2-(trifluoromethyl)phenoxy)ethyl)piperidin-3-ol]",> 30 µM,> 30 µM,10 to 30 µM,1 to 10 µM
"CC1(Oc2cccc(C(F)(F)F)c2)CCN(CCOc2ccccc2F)C1 (centres unmarked) [Example 64, 1-(2-(2-fluorophenoxy)ethyl)-3-methyl-3-(3-(trifluoromethyl)phenoxy) pyrrolidine]",> 30 µM,0.1 to 1 µM,10 to 30 µM,> 30 µM
"CC1(Oc2cccc(C(F)(F)F)c2)CCCN(CCOc2cc(F)ccc2F)C1 (centres unmarked) [Example 62, 1-(2-(2,5-Difluorophenoxy)ethyl)-3-methyl-3-(3-(trifluoromethyl)phenoxy)piperidine]",> 30 µM,> 30 µM,1 to 10 µM,1 to 10 µM
"CC1(Oc2ccccc2)CCN(CCOc2cc(F)ccc2C(F)(F)F)CC1 [Example 76, 1-(2-(5-fluoro-2-(trifluoromethyl)phenoxy)ethyl)-4-methyl-4-phenoxypiperidine]",> 30 µM,< 0.1 µM,0.1 to 1 µM,> 30 µM
"CCc1ccccc1OCCN1CCC(C)(Oc2ccccc2)CC1 [Example 70, 1-(2-(2-Ethylphenoxy)ethyl)-4-methyl-4-phenoxypiperidine]",> 30 µM,< 0.1 µM,0.1 to 1 µM,10 to 30 µM
"CC1(Oc2ccc(Cl)cc2)CCN(CCOc2ccc(Cl)cc2)C1 (centres unmarked) [Compound 15, 3-(4-chlorophenoxy)-1-(2-(4-chlorophenoxy)ethyl)-3-methylpyrrolidine]",> 30 µM,< 0.1 µM,1 to 10 µM,1 to 10 µM
"CC1(Oc2ccccn2)CCN(CCOc2ccccc2)C1 (centres unmarked) [Example 57, 2-((3-methyl-1-(2-phenoxyethyl)pyrrolidin-3-yl)oxy)pyridine]",> 30 µM,0.1 to 1 µM,1 to 10 µM,> 30 µM
"CC1(Oc2ccccc2Cl)CCN(CCOc2ccccc2)C1 (centres unmarked) [Example 47, 3-(2-chlorophenoxy)-3-methyl-1-(2-phenoxyethyl)pyrrolidine]",> 30 µM,0.1 to 1 µM,1 to 10 µM,> 30 µM
"CC1(Oc2cccc(C(F)(F)F)c2)CCCN(CCOc2ccccc2F)C1 (centres unmarked) [Example 61, 1-(2-(2-Fluorophenoxy)ethyl)-3-methyl-3-(3-(trifluoromethyl)phenoxy) piperidine]",> 30 µM,> 30 µM,1 to 10 µM,0.1 to 1 µM
"CC1(Oc2ccc(Cl)cc2)CCCN(CCOc2ccccc2F)C1 (centres unmarked) [Example 98, 3-(4-Chlorophenoxy)-1-(2-(2-fluorophenoxy)ethyl)-3-methylpiperidine]",> 30 µM,> 30 µM,0.1 to 1 µM,< 0.1 µM
"CC1(Oc2ccc(Cl)cc2)CCN(CCCCOc2ccccc2Cl)C1 (centres unmarked) [Compound 28, 3-(4-chlorophenoxy)-1-(4-(2-chlorophenoxy)butyl)-3-methylpyrrolidine]",> 30 µM,> 30 µM,0.1 to 1 µM,< 0.1 µM
"FC(F)(F)c1ccccc1OCCN1CCC2(CC1)Cc1ccccc1O2 [Compound 179, 1′-(2-(2-(trifluoromethyl)phenoxy)ethyl)-3H-spiro[benzofuran-2,4′-piperidine]]",> 30 µM,> 30 µM,1 to 10 µM,0.1 to 1 µM
"CC1(Oc2cccc(Cl)c2Cl)CCN(CCOc2ccccc2)C1 (centres unmarked) [Example 49, 3-(2,3-dichlorophenoxy)-3-methyl-1-(2-phenoxyethyl)pyrrolidine]",> 30 µM,0.1 to 1 µM,10 to 30 µM,> 30 µM
"CC1(Oc2ccc([N+](=O)[O-])cc2)CCN(CCOc2ccccc2)C1 (centres unmarked) [Example 43, 3-Methyl-3-(4-nitrophenoxy)-1-(2-phenoxyethyl)pyrrolidine]",> 30 µM,> 30 µM,1 to 10 µM,> 30 µM

# The next lines start with the values.
EC50 [1],EC50 [2],IC50 [3],IC50 [4],SMILES
> 30 µM,> 30 µM,10 to 30 µM,1 to 10 µM,"CC1(Oc2ccc(Cl)cc2)CCN(CCC(C)(O)c2ccccc2C(F)(F)F)CC1 (centres unmarked) [Compound 117, 4-(4-(4-chlorophenoxy)-4-methylpiperidin-1-yl)-2-(2-(trifluoromethyl)phenyl)butan-2-ol]"
> 30 µM,> 30 µM,10 to 30 µM,0.1 to 1 µM,"CC(O)c1ccc(OCCN2CCC(C)(Oc3ccc(Cl)cc3)CC2)cc1 (centres unmarked) [Compound 154, 1-(4-(2-(4-(4-chlorophenoxy)-4-methylpiperidin-1-yl)ethoxy)phenyl)ethanol]"
> 30 µM,< 0.1 µM,0.1 to 1 µM,1 to 10 µM,"CC1(C(=O)NC2CC2)CCN(CC2COc3ccccc3O2)CC1 (single isomer, unassigned) [Compound 203a, N-cyclopropyl-1-((2,3-dihydrobenzo[b][1,4]dioxin-2-yl)methyl)-4-methylpiperidine-4-carboxamide]"
> 30 µM,0.1 to 1 µM,1 to 10 µM,0.1 to 1 µM,"CNC(=O)C1(C)CCN(CCOc2ccccc2F)CC1 [Compound 200, 1-(2-(2-fluorophenoxy)ethyl)-N,4-dimethylpiperidine-4-carboxamide]"
> 30 µM,< 0.1 µM,1 to 10 µM,0.1 to 1 µM,"CC1(Oc2ccc(Cl)cc2)CCN(CCOc2ccc3ncoc3c2)C1 (centres unmarked) [Example 92, 6-(2-(3-(4-Chlorophenoxy)-3-methylpyrrolidin-1-yl)ethoxy)benzo[d]oxazole]"
0.1 to 1 µM,< 0.1 µM,> 30 µM,> 30 µM,"CC1(Oc2ccc(Cl)cc2)CCN(CCOc2ccccc2)CC1 [Compound 38, 4-(4-chlorophenoxy)-4-methyl-1-(2-phenoxyethyl)piperidine]"
> 30 µM,< 0.1 µM,0.1 to 1 µM,> 30 µM,"CC1(Oc2ccc(F)cc2)CCN(CCOc2ccccc2)C1 (centres unmarked) [Example 51, 3-(4-fluorophenoxy)-3-methyl-1-(2-phenoxyethyl)pyrrolidine]"
> 30 µM,> 30 µM,1 to 10 µM,1 to 10 µM,"CC1(Oc2ccc(Cl)cc2)CCN(CCNc2ccccc2C(F)(F)F)CC1 [Compound 168, N-(2-(4-(4-chlorophenoxy)-4-methylpiperidin-1-yl)ethyl)-2-(trifluoromethyl) aniline]"
1 to 10 µM,< 0.1 µM,0.1 to 1 µM,> 30 µM,"CC1(NC(=O)C(F)(F)F)CCN(C[C@H]2COc3ccccc3O2)CC1 [Compound 212, (S)—N-(1-((2,3-dihydrobenzo[b][1,4]dioxin-2-yl)methyl)-4-methylpiperidin-4-yl)-2,2,2-trifluoroacetamide]"
< 0.1 µM,< 0.1 µM,0.1 to 1 µM,> 30 µM,"Cc1ccccc1OCCN1CCC(C)(Oc2ccccc2)CC1 [Example 69, 4-methyl-4-phenoxy-1-(2-(o-tolyloxy)ethyl)piperidine]"
0.1 to 1 µM,< 0.1 µM,10 to 30 µM,> 30 µM,"CC1(Oc2ccc(Cl)cc2)CCN(CCOc2cncs2)CC1 [Compound 161, 5-(2-(4-(4-chlorophenoxy)-4-methylpiperidin-1-yl)ethoxy)thiazole]"
1 to 10 µM,< 0.1 µM,> 30 µM,> 30 µM,"CC1(Oc2cccnc2)CCN(CCOc2ccccc2)C1 (centres unmarked) [Example 58, 3-((3-methyl-1-(2-phenoxyethyl)pyrrolidin-3-yl)oxy)pyridine]"
0.1 to 1 µM,< 0.1 µM,> 30 µM,> 30 µM,"CC1(Oc2ccc(Cl)cc2)CCN(CCOc2ccc(Cl)cc2)CC1 [Compound 151, 4-(4-chlorophenoxy)-1-(2-(4-chlorophenoxy)ethyl)-4-methylpiperidine]"
0.1 to 1 µM,< 0.1 µM,> 30 µM,> 30 µM,"CC1(Oc2ccc(Cl)cc2)CCN(CCOc2cccc(F)c2C(F)(F)F)CC1 [Compound 156, 4-(4-chlorophenoxy)-1-(2-(3-fluoro-2-(trifluoromethyl)phenoxy)ethyl)-4-methylpiperidine]"
